In patent publication US8354537B2, “R,R1-atracurium salts” (CHEMAGIS Ltd., priority 2007, dated 2013):

Assay: Stability of the R,R′-atracurium salts in a closed vial at room temperature, monitored by HPLC
Assay type: physicochemical
Details: solid salt; for % content of the 1R-cis,1′R-cis isomer in the sample, After 19 days / % content of the 1R-cis,1′R-cis isomer in the sample, After 34 days / % content of the 1R-cis,1′R-cis isomer in the sample, After 47 days: HPLC; for % content of the 1R-cis,1′R-cis isomer in the sample, Reference sample (t0): t0, HPLC
Excerpt: 1 g of the R,R′-atracurium salt was placed in a closed vial, which was left aside at room temperature. From time to time the vial was opened and a sample was withdrawn and monitored by HPLC. The results are summarized in Table 3 and expressed as % content of the 1R-cis,1′R-cis isomer in the sample as function of the elapsed time, as measured by HPLC.

| Compound | % content of the 1R-cis,1′R-cis isomer in the sample, After 19 days [%] | % content of the 1R-cis,1′R-cis isomer in the sample, After 34 days [%] | % content of the 1R-cis,1′R-cis isomer in the sample, After 47 days [%] | % content of the 1R-cis,1′R-cis isomer in the sample, Reference sample (t0) [%] |
| --- | --- | --- | --- | --- |
| COc1ccc(C[C@@H]2c3cc(OC)c(OC)cc3CC[N+]2(C)CCC(=O)OCCCCCOC(=O)CC[N+]2(C)CCc3cc(OC)c(OC)cc3[C@H]2Cc2ccc(OC)c(OC)c2)cc1OC.O=S(=O)([O-])c1ccccc1.O=S(=O)([O-])c1ccccc1 (stereo partly drawn) [besylate, R,R′-atracurium besylate, reference compound] | 80.5 | 15.1 | 7.9 | 97.2 |
| R,R′-atracurium perchlorate | 92.1 | 92.7 | 92.3 | 98 |
| R,R′-atracurium tetrafluoroborate | 88.8 | 85.3 | 82.6 | 98.2 |
